Measurements published in US5667764A, “Compounds, compositions and methods for binding bio-affecting substances to surface membranes of bio-particles” (Zynaxis, Inc., priority 1992, dated 1997).

How the values were obtained:
[1] = test system: SMC cell surfaces; conditions: cited from earlier work
[2] = test system: myointimal thickening; conditions: cell culture or animals after arterial injury; cited from earlier work
[3] = test system: vascular smooth muscle cells (SMC); conditions: cited from earlier work
[4] = target: thrombin (Homo sapiens, UniProt P00734+P01008); assay: Thrombin inhibition (fibrin generation in diluted human plasma); type: biochemical; conditions: 0.5 nM thrombin; conjugate on ghosts (@1.43×10^7 ghosts/200 ul)
thrombin, sequence (P01008 33-464, one chain of several): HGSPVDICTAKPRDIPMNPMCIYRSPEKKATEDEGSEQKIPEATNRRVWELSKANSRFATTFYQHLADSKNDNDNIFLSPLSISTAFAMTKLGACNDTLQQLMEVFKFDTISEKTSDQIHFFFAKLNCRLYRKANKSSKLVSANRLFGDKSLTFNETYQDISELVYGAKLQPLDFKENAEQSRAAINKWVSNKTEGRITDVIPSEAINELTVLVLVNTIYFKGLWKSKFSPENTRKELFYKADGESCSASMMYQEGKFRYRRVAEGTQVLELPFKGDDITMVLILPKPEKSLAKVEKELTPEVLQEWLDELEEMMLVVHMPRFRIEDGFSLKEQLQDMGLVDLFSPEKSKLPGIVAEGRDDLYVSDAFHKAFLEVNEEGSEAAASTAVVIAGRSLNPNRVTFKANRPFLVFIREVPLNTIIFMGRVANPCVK
Protocol: The concentration response for unconjugated anti-coagulant is provided for comparison. Percentage inhibition of thrombin response (y-axis) is recorded as a function of the molar concentration of compound tested (lower x-axis; log scale), and of the number of carrier cells per test sample (upper x-axis; log scale).
To determine whether the anticoagulative properties of the compounds of the invention were retained when coated on the surface of biomembranes, in vitro studies were performed to assess the ability of the compound of invention to inhibit the coagulation enzyme, thrombin. […] Concentration of compound 21 on ghosts was assessed by placing known numbers of ghosts in microtiter plate wells and comparing the observed fluorescence to the fluorescence produced by known standard concentrations of the compound. […] 211:10 (1987), wherein 100 μl a 1:10 dilution of human plasma in phosphate buffered saline (PBS) buffer, 50 μl of PBS containing varying concentrations of labeled ghosts or standard thrombin inhibitor, and 50 μl of PBS containing a constant amount (0.5 nM) of thrombin were added to microtiter plate wells and absorbance changes at 405 nm were recorded in a spectrophotometric plate reader (Bio-Tek) over a 60 minute period. […] The absorbance changes over time data were plotted and area-under-the-curve measurements performed by computer. […]

[5] = test system: synovial cells; assay: Synovial distribution after intra-articular injection; type: in vivo; conditions: 1 hour after injection into the knee, 10 μM
Protocol: To estimate the homogeneity or heterogeneity of incorporation by synovial cells after intra-articular injection, approximately 0.1 mL of a 10 μM solution of an iodide salt of compound T (see Example 2, above) in 300 mOsM pH 7.0 glucose was injected into the knee as described in Example 10. After 1 hour, the animal was sacrificed, and both injected and uninjected knee joints were dissected. Preparation of whole joint cross sections was not feasible because demineralization is required to cut thin sections and demineralizing solvents remove compounds of the invention from tissue. Therefore the infrapatellar fat pads which underlie the kneecap and form one boundary of the synovial cavity were carefully removed, snap frozen on dry ice, and stored at -80° until frozen sections could be prepared. Thick (10μ) cryostat sections were cut, adhered to glass slide, and evaluated by light and fluorescence microscopy.
(The synovial layer is only 1-2 cells thick in a normal joint but becomes thickened due to hyperproliferation in an arthritic joint.) The rest of the tissue was composed primarily of large fat cells.

[6] = test system: cells (red cell membranes); assay: Number of molecules of compound incorporated per cell; type: cell-based; conditions: 10 μM compounds
Protocol: Number of molecules of compound incorporated per cell was determined for cells labeled with 10 μM compounds. An aliquot of 10^6 cells (10 ul) was withdrawn from the washed cells after final resuspension and counting, compounds were extracted from the cell membrane by admixture with 250 μl of 100% ethanol, and the fluorescence intensity of 200 μl of the extract was measured using a Fluoroskan II fluorescence microplate reader and filter combination. Concentration of compound in each extract was determined from a calibration curve of known compound concentrations made up in 100% ethanol and measured on the Fluoroskan II. Number of molecules of compound per cell was then calculated from the known extract concentration, total volume of extract, and known number of cells extracted. Calculated values were (4.0±0.4)×10^6 for compound T (1.3±0.2)×10^6 for compound AA and (2.5±0.7)×10^6 for compound AB.

[7] = test system: erythrocyte membrane ghosts; assay: Relative membrane retention in erythrocyte membrane ghosts (iodination study); type: binding; conditions: 24 hours, 37° C., PBS+EDTA+5% BSA
Protocol: Relative membrane retention was determined using erythrocyte membrane ghosts prepared by NH4 Cl lysis (Slezak and Horan, Blood, supra). Ghosts were labeled at 4×10^8 /ml with 10 μM compounds for 5 minutes at room temperature, using previously described procedures. However, post-labeling washes were carried out using PBS containing 1 mM EDTA and 5% BSA. After the final wash, ghosts were resuspended at 4×10^8 /ml in PBS+EDTA+5% BSA and incubated for 24 hours at 37° C. At 24 hours, duplicate 50 μl aliquots were withdrawn from a) the well mixed suspension of ghosts (for determination of total compound present), and b) the supernatant remaining after ghosts were pelleted for 15 minutes at 12,500×g (for determination of unbound compound present). Aliquots were extracted by admixture with 200 μl of 100% ethanol and fluorescence intensity of each extract measured using the Fluoroskan II fluorescence microplate reader. Percent compound retained was calculated as
total compound--unbound compound×100/total compound

[8] = test system: membrane ghosts; assay: Membrane binding stability (MBS) assay in membrane ghosts with 5% albumin; conditions: 24 hours
Summary of the method: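 Labeled membrane ghosts were suspended at decreasing numbers in a fixed volume of saline with 5% serum albumin. After 24 hours, label released into the supernatant after pelleting was expressed as percent of total. MBS is the area under the percent-retention versus ghosts/ml curve between 5×10^7 and 4×10^8 ghosts/ml.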

[9] = test system: red blood cell ghosts (plasma membrane); assay: Membrane retention coefficient (MRC) in red blood cell ghosts; type: binding; conditions: 24 hr; Table II
Protocol: Determination of Membrane Retention Coefficient
The membrane retention coefficient (MRC) provides information regarding how well a given compound is retained in the plasma membrane of a cell and is determined as described below.
Generation of red blood cell ghosts for use as a model membrane is achieved by centrifuging whole blood at 300×g for 15 minutes, removal of the plasma and resuspension of the cell pellet in 0.83% (w/v) ammonium chloride. The ghosts are pelleted from the ammonium chloride by centrifuging at 10,000×g for 10 minutes. This ammonium chloride washing procedure is repeated a minimum of five times to insure that complete release of hemoglobin from the cells has occured. The ghosts are labeled with the compound in question at a concentration allowing for detection of the labeled ghosts by instrumental analysis or fluorescent microscopic methods, and at a concentration similar to those that would be used to label cells for a specific application as described above. For the determinations hereinbelow stock solutions of the compounds in question were prepared in ethanol at a molar concentration of 2×10^-3, and working dilutions of the compounds were prepared in iso-osmotic sucrose (52 g/500 ml distilled water). After incubation of the ghosts at an approximate concentration of 1×10^9 ghosts/ml in the working dilutions of the compounds for 10 minutes, the samples were centrifuged at 10,000×g to pellet the ghosts and the staining solution was aspirated from the samples. The labeled ghosts were resuspended in 1 ml of phosphate buffered saline solution containing 10% fetal bovine serum (PBS-FBS). Triplicate 20 ul aliquots were removed from each sample for the determination of the amount of total compound present. The samples were centrifuged as described above and triplicate 20 ul aliquots were removed from the supernatant for quantitative determination of amount of unbound compound present.
After sampling, the supernatant was aspirated and the red cell ghost pellet was resuspended in 1.0 ml of the PBS-FBS, which was once again sampled as described above. This procedure was repeated at least six times, allowing for detection of rapidly released compounds and was monitored after times equal to or greater than 24 hours to allow for the detection of more slowly released compounds. For the determination of the amount of compound present in each sample, the 20 ul aliquots were extracted into 3.0 ml of n-butanol by shaking. The samples were centrifuged at 3000×g to remove membrane debris and the butanol fractions were assayed for compound concentration. Fluorescent compounds are assayed in this manner using peak excitation and emission wave lengths for the particular compounds being assayed to determine the fluorescence units for each sample.
The determination of the amount of compound present in each sample as described above allows for the calculation of the MRC for each washing or fixed time point. The value is obtained by the following formula: […]
wherein CT represents the amount of compound present (in units determined by the method used to assay the compound) in the total sample and CS represents the amount of compound present in the supernatant sample for that particular time point. The comparison of the MRC values defines criteria for identification of the compounds of this invention, these criteria being: 1) the MRC values determined for each washing steps should have a value of at least about 90 and 2) the percent difference between MRC values over at least a 24 hour time period should be less than about 10%. [drawing 14]
The data provided in Table I below are the results from one experiment and serve as an example of the MRC determination. […]

[10] = In vivo loss of dye from labeled, reinjected erythrocytes; conditions: rabbit, iv
Description: *Half life for loss of dye from rabbit erythrocytes after labeling and

Molecule | Binding to SMC cell surfaces [1] | Effect of heparin on smooth muscle cells / after arterial injury [2] | Inhibition of cell growth / antiproliferative activity [3] | EC50 [4] | Labeling of infrapatellar fat pad cross sections [5] | Number of molecules of compound incorporated per cell [6] | Percent compound retained [7] | MBS (% of max.) ([8]; Table II) | MBS ([8]; Table III) | MRC# (at 24 hr.) [9] | half-life [10]
Heparin | binds to SMC cell surfaces via high affinity binding sites and is taken up intracellularly | decreased growth and reduced myointimal thickening and cell proliferation | inhibit the growth of several different cell types, including vascular smooth muscle cells (SMC) | 1.03 nM |  |  |  |  |  |  | 
CCCCCCCCCCCCCCCCCCCCCCN1C(=CC=CC2=[N+](CCCCCCCCCCCCCC)c3ccccc3C2(C)C)C(C)(C)c2ccccc21 [T] |  |  |  |  | bright and relatively homogeneous labeling was essentially confined to the synovial cell layer | (4.0±0.4)×10^6 molecules of compound per cell | 91.9±2.9% | 85 ± 1.7 % of max. | 85 ± 1.7% | 97 ± 0.1 | 130 days
